Assay results as given in publication PMC7732531 (Frontiers in Pharmacology, 2020).
“And” between values parts separate entries of the source, which are not always exact repeats. Equal entries are not always repeated. Where two headings read alike, the source gives them in different places.

Key:
[1] = Metabolic stability in human liver microsomes (NADPH / UDPGA); conditions: HLM
TSPO = test system: TSPO; design: method as in Zhang et al. (2017); conditions: crude mitochondrial fraction from rat cerebellum, 10 volumes HS buffer; ref Zhang et al. (2017); cited from earlier work
[2] = Stability of YL-IPA08 in rat plasma (LC-MS/MS validation); type: in vitro ADME
Protocol: The quantification of YL-IPA08 in rat plasma was fully validated, and in vitro samples were particularly validated by selectivity, precision, and stability. The calibration curves of YL-IPA08 in rat plasma and in vitro incubates ranged in the concentrations of 0.5–500 ng/ml and 1–1,000 nM, respectively. The intra-day precision and inter-day precision […] were less than 15% at QC concentrations (full methodology validation results were presented in Supplementary Tables S1–S3).

[3] = Protein binding by rapid equilibrium dialysis, rat brain homogenate; type: in vitro ADME
Protocol: (§1) The fraction of unbound YL-IPA08 in plasma and liver microsomes of rat and human, and brain homogenates of rat were determined utilizing Rapid Equilibrium Dialysis method ([Waters et al., 2008]). Rat brain homogenate was harvested in 4-fold volume (w/v) of PBS (pH 7.4). YL-IPA08 were spiked into fresh plasma, rat brain homogenate, liver microsomes (0.2 mg/ml protein) at concentration of 1 µM, and then dialyzed against biomatrices on a shaker at 37°C for 4 h. To avoid the high non-specific binding of YL-IPA08, 0.01% Tween 80 was added in the incubation mixture. At the end of the incubation, protein was precipitated with acetonitrile (containing IS) and analyzed by LC-MS/MS. Phenacetin, quinidine, and warfarin were selected as positive control for the protein binding test.

in vitro [4] = conditions: rat; for fraction unbound at 4 h, 1 µM: plasma
Protocol: The fraction of unbound YL-IPA08 in plasma and liver microsomes of rat and human, and brain homogenates of rat were determined utilizing Rapid Equilibrium Dialysis method ([Waters et al., 2008]). Rat brain homogenate was harvested in 4-fold volume (w/v) of PBS (pH 7.4). YL-IPA08 were spiked into fresh plasma, rat brain homogenate, liver microsomes (0.2 mg/ml protein) at concentration of 1 µM, and then dialyzed against […] on a shaker at 37°C for 4 h. To avoid the high non-specific binding of YL-IPA08, 0.01% Tween 80 was added in the incubation mixture. At the end of the incubation, protein was precipitated with acetonitrile (containing IS) and analyzed by LC-MS/MS. Phenacetin, quinidine, and warfarin were selected as positive control for the protein binding test.
The unbound fraction of YL-IPA08 in plasma or liver microsomes (ƒu,x) was calculated as shown in Eq. 2, and unbound fraction in the tissue homogenate (ƒu,b) was calculated according to Eq. 3. fu,x = Concbuffer chamber/Concplasma/liver microsomes chamber (2) fu,b = Concbuffer chamber/Concbrain homogenate chamber (3) The measured unbound fractions would be higher when a tissue is homogenized and diluted in buffer, the unbound fractions in an undiluted tissues (ƒu,brain) were calculated using Eq. 4 ([Kalvass and Maurer, 2002]). Undiluted fu,brain=1/D/((1/fu,brain homogenate)−1)+1/D (4) Where D represents the fold of dilution factor in brain homogenates. The free fraction of plasma and undiluted tissue is used in tissue-to-plasma exposure ratio calculation.

[5] = Pharmacokinetics in portal and jugular vein double cannulated rats; conditions: double cannulation rat model, if F a is 100%
Protocol: (§2) The surgical procedure for portal vein catheter insertion was performed according to reference ([Matsuda et al., 2012]). Male SD rats (250–280 g) were purchased from Beijing Vital River Laboratory Animal Technology Co., Ltd. (Beijing, China). Rats were anesthetized with 2% pentobarbital sodium (0.2–0.3 mg/100 g) intraperitoneally dosed. Cannulation into the jugular vein was performed by the method of Murakami reported ([Murakami et al., 2003]) with minor modification. Briefly, an incision of ∼0.5 cm near right clavicle was made and the jugular vein was exposed. Next, this vein was cannulated with ∼12.5 cm of silicone gel tubing (0.6 mm I.D. × 0.9 mm O.D., Skillsmodel Inc., Beijing, China). The other side of the tubing was passed through the back skin. 2.5 cm midline incision was made in the abdominal cavity close to ensiform process and the portal vein was detached. To prevent bleeding, the portal vein was ligated temporarily as the catheter was inserted. The silicone tubing (22 cm, 0.6 mm I.D. × 0.9 mm O.D., Skillsmodel Inc., Beijing, China) was inserted immediately and fixed by a purse-string suture on the portal vein. The time to reperfusion was about 1 min after intercepted blood flow. In addition, a catheter with trumpet-shaped opening was used to prevent the catheter from slipping out of the vessel and minimize the effect on blood flow. Another end of the catheter was passed subcutaneously to the skin close to the scapula.
(§3) Blood samples were collected at 0, 0.083, 0.25, 0.5, 1, 2, 4, 6, 8 and 12 h. Blood (approximately 100 µl) was collected from the jugular and portal veins into tubes containing heparin on ice and centrifuged within 1 h of collection. Plasma was harvested and stored at −20°C for bioanalysis.
(§4) FaFg was calculated using mass balance method and rat portal blood flow (Qpv) of 32 ml/min/kg, where Rb/p is used to convert plasma concentrations to blood concentrations.

[6] = male, rat, in vivo, po, 1 mg/kg; for Plasma concentration: SD
Protocol: as §2, §3, §4

[7] = Mass balance study in rats via oral administration; conditions: rat, feces
[8] = human, microsomes, 0 h, 1 μM, pH 7.4
in vitro [9] = type: in vitro ADME; conditions: human, microsomes
Protocol: as §1
The unbound fraction of YL-IPA08 in plasma or liver microsomes (ƒu,x) was calculated as shown in Eq. 2, and unbound fraction in the tissue homogenate (ƒu,b) was calculated according to Eq. 3. fu,x = Concbuffer chamber/Concplasma/liver microsomes chamber (2) fu,b = Concbuffer chamber/Concbrain homogenate chamber (3) The measured unbound fractions would be higher when a tissue is homogenized and diluted in buffer, the unbound fractions in an undiluted tissues (ƒu,brain) were calculated using Eq. 4 ([Kalvass and Maurer, 2002]). […]

[10] = rat, microsomes, 0 h, 1 μM, pH 7.4
[11] = Freeze-thaw three cycles, HQC (400ng/ml)
[12] = Freeze-thaw three cycles, LQC (1ng/ml)
[13] = Freeze-thaw three cycles, MQC (20ng/ml)
[14] = In auto-sample for 24 h, HQC (400ng/ml)
[15] = In auto-sample for 24 h, LQC (1ng/ml)
[16] = In auto-sample for 24 h, MQC (20ng/ml)
[17] = Room temperature for 24 h, HQC (400ng/ml)
[18] = Room temperature for 24 h, LQC (1ng/ml)
[19] = Room temperature for 24 h, MQC (20ng/ml)

Which “Clint normalized by CYP content” value [1] does the source give for `CCN(Cc1ccccn1)C(=O)Cc1c(-c2ccc(Cl)c(Cl)c2)nc2cc(C)ccn12` [YL-IPA08] here?
Its value is 3.47 ± 0.04 ml/min/nmol CYP protein and 2.76 ± 0.05 ^a ml/min/nmol CYP protein.

And the IC50 (TSPO)?
The IC50 was 230 pM.

And the Accuracy ([2]; 4℃ for 24 h, HQC (400ng/ml))?
Its Accuracy is 99.8±8.0%.

And the Measured value ([2]; 4℃ for 24 h, HQC (400ng/ml))?
Its Measured value is 399.00 ± 31.76 ng/mL.

What about the Accuracy ([2]; 4℃ for 24 h, LQC (1ng/ml)) of the same molecule?
The Accuracy was 113.0±9.0%.

And the Measured value ([2]; 4℃ for 24 h, LQC (1ng/ml))?
The Measured value was 1.13 ± 0.09 ng/mL.

What about the Accuracy ([2]; 4℃ for 24 h, MQC (20ng/ml)) of the same molecule?
Its Accuracy is 108.7±5.3%.

What about the Measured value ([2]; 4℃ for 24 h, MQC (20ng/ml)) of the same molecule?
Its Measured value is 21.73 ± 1.07 ng/mL.

What about the Accuracy ([2]; -40℃ for 7 d, HQC (400ng/ml)) of the same molecule?
The Accuracy was 105.1±8.5%.

What about the Measured value ([2]; -40℃ for 7 d, HQC (400ng/ml)) of the same molecule?
Its Measured value is 420.33 ± 33.84 ng/mL.

What about the Accuracy ([2]; -40℃ for 7 d, LQC (1ng/ml)) of the same molecule?
Its Accuracy is 105.0±6.0%.

What about the Measured value ([2]; -40℃ for 7 d, LQC (1ng/ml)) of the same molecule?
Its Measured value is 1.05 ± 0.06 ng/mL.

And the Accuracy ([2]; -40℃ for 7 d, MQC (20ng/ml))?
Its Accuracy is 105.0±4.1%.

And the Measured value ([2]; -40℃ for 7 d, MQC (20ng/ml))?
The Measured value was 21.00 ± 0.82 ng/mL.

And the Accuracy [2, 11]?
The Accuracy was 96.8±2.6%.

What about the Measured value [2, 11] of the same molecule?
The Measured value was 387.33 ± 10.21 ng/mL.

What about the Accuracy [2, 12] of the same molecule?
Its Accuracy is 114.0±5.0%.

And the Measured value [2, 12]?
Its Measured value is 1.14 ± 0.05 ng/mL.

What about the Accuracy [2, 13] of the same molecule?
The Accuracy was 103.0±1.8%.

What about the Measured value [2, 13] of the same molecule?
The Measured value was 20.60 ± 0.36 ng/mL.

And the Accuracy [2, 14]?
The Accuracy was 98.6±3.0%.

What about the Measured value [2, 14] of the same molecule?
Its Measured value is 394.33 ± 12.06 ng/mL.

What about the Accuracy [2, 15] of the same molecule?
Its Accuracy is 95.0±2.0%.

What about the Measured value [2, 15] of the same molecule?
Its Measured value is 0.95 ± 0.02 ng/mL.

What about the Accuracy [2, 16] of the same molecule?
Its Accuracy is 100.4±1.2%.

And the Measured value [2, 16]?
Its Measured value is 20.07 ± 0.25 ng/mL.

What about the Accuracy [2, 17] of the same molecule?
The Accuracy was 102.5±1.4%.

And the Measured value [2, 17]?
The Measured value was 410.00 ± 5.57 ng/mL.

What about the Accuracy [2, 18] of the same molecule?
Its Accuracy is 110.0±8.0%.

And the Measured value [2, 18]?
Its Measured value is 1.10 ± 0.08 ng/mL.

And the Accuracy [2, 19]?
The Accuracy was 112.5±4.1%.

What about the Measured value [2, 19] of the same molecule?
The Measured value was 22.50 ± 0.82 ng/mL.

And the “Protein biding (%)” value ([3]; Rat brain homogenate, 1 µM, dialysis 4 h)?
The value was 99.51 ± 0.01%.

And the “Concentration, Cbuffer chamber” value ([3]; Rat brain homogentate, 4 h)?
Its value is 18.85 ± 0.21 nM.

What about the “Concentration, Cplasma/microsome chamber” value ([3]; rat, 4 h, 1 µM, pH 7.4) of the same molecule?
Its value is 788.33 ± 8.39 nM.

And the fraction unbound at 4 h, 1 µM ([3]; rat, brain homogenate, pH 7.4)?
Its fraction unbound at 4 h, 1 µM is 0.0049.

What about the “Concentration, Cbuffer chamber” value (in vitro [4]; 4 h, 1 µM) of the same molecule?
Its value is 5.44 ± 0.33 nM.

What about the “Concentration, Cplasma/microsome chamber” value (in vitro [4]; 4 h, 1 µM) of the same molecule?
The value was 872.67 ± 32.52 nM.

And the “Protein biding (%)” value (in vitro [4]; 4 h, 1 µM)?
The value was 99.40 ± 0.01%.

What about the fraction unbound at 4 h, 1 µM (in vitro [4]) of the same molecule?
Its fraction unbound at 4 h, 1 µM is roughly 0.01.

What about the fraction unbound at 4 h, 1 µM (in vitro [4]; Unbound fraction) of the same molecule?
Its fraction unbound at 4 h, 1 µM is 0.006.

What about the “extraction of gut metabolism” value [5] of the same molecule?
The value was 78%.

What about the Plasma concentration ([6]; 0.5 h) of the same molecule?
Its Plasma concentration is 111.40 ± 22.00 ng/mL.

And the Plasma concentration ([6]; 1 h)?
The Plasma concentration was 101.93 ± 40.76 ng/mL.

What about the Plasma concentration ([6]; 2 h) of the same molecule?
Its Plasma concentration is 91.33 ± 38.19 ng/mL.

What about the Plasma concentration ([6]; 4 h) of the same molecule?
The Plasma concentration was 41.78 ± 20.79 ng/mL.

What about the Plasma concentration ([6]; 6 h) of the same molecule?
Its Plasma concentration is 12.85 ± 4.33 ng/mL.

What about the Plasma concentration ([6]; 8 h) of the same molecule?
Its Plasma concentration is 5.62 ± 1.64 ng/mL.

What about the Plasma concentration ([6]; 12 h) of the same molecule?
Its Plasma concentration is 1.98 ± 0.88 ng/mL.

And the “F a F g” value ([6]; Sprague-Dawley (SD))?
The value was 22%.

And the dose excreted [7]?
Its dose excreted is 0.004%.

What about the percent of remaining [8] of the same molecule?
The percent of remaining was 100.00%.

What about the fraction unbound at 4 h, 1 µM (in vitro [9]) of the same molecule?
The fraction unbound at 4 h, 1 µM was 0.447.

What about the percent of remaining [10] of the same molecule?
Its percent of remaining is 100.00%.
